{"source": "paper PMC10294657", "about": "“The dCache Domain of the Chemoreceptor Tlp1 in Campylobacter jejuni Binds and Triggers Chemotaxis toward Formate” (mBio, 2023)", "biological_target": "T1, Tlp1 (Cj1506c), Tlp1-LBD (Campylobacter jejuni, UniProt Q0P8B2)", "T1 construct": "Tlp1-LBD (residues 31 to 326), dCache domain", "T1 sequence (Q0P8B2 entry or part of it)": "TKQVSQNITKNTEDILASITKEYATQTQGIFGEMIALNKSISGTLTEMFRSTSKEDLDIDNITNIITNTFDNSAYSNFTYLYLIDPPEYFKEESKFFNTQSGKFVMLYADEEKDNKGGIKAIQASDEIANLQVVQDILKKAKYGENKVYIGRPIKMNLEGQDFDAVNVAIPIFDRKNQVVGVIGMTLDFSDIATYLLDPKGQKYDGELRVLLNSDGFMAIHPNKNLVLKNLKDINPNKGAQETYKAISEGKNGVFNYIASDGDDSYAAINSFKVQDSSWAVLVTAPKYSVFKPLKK", "assay": "ITC with purified Tlp1-LBD, pH […]°C", "format": "binding", "data": [{"compound": "O=CO", "note": "[formate]", "values": [{"measurement": "Kd", "result": "245 ± 74", "unit": "µM"}]}]}
